Reference: PubChem BioAssay (NCI)
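The compound was tested at five concentrations on cells cultured in 96-well plates, with a 48-hour exposure period. TGI: concentration producing complete growth inhibition.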

Experiments:
Assay in all cases: DTP human tumour cell line panel, 48 h
PC-3 prostate = test system: PC-3 prostate
HCC-2998 colon = test system: HCC-2998 colon
T-47D breast = test system: T-47D breast
MOLT-4 leukemia = test system: MOLT-4 leukemia
OVCAR-4 ovarian = test system: OVCAR-4 ovarian
SR leukemia = test system: SR leukemia
OVCAR-8 ovarian = test system: OVCAR-8 ovarian
OVCAR-5 ovarian = test system: OVCAR-5 ovarian
K-562 leukemia = test system: K-562 leukemia
KM12 colon = test system: KM12 colon

SMILES | TGI (PC-3 prostate) [µM] | TGI (HCC-2998 colon) [µM] | TGI (T-47D breast) [µM] | TGI (MOLT-4 leukemia) [µM] | TGI (OVCAR-4 ovarian) [µM] | TGI (SR leukemia) [µM] | TGI (OVCAR-8 ovarian) [µM] | TGI (OVCAR-5 ovarian) [µM] | TGI (K-562 leukemia) [µM] | TGI (KM12 colon) [µM]
O=[N+]([O-])c1ccc(-[n+]2ccc3ccccc3c2)c([N+](=O)[O-])c1 | 13.1 | 26.7 | 4.35 | > 21 | 3.04 | > 100 | 6.74 | 23.9 | > 23.2 | 27.7
Cc1csc2n(C)c(=O)c3ccccc3[n+]12 | > 100 | > 100 | > 100 | > 100 | > 100 | > 100 | > 100 | > 100 | > 100 | > 100
C=C1[C@H](OCC(C)C)[C@@H](OC(=O)C(C)CC)[C@@H](O)C(C)(C)/C=C/[C@H](C)C(=O)[C@@]2(O)C[C@H](C)[C@H](O)[C@@H]2[C@H]1OC(=O)C(C)CC (stereo partly drawn) | > 14.8 | > 9.84 | > 20 | > 10.3 | > 20 | > 10.5 | > 20 | > 17.7 | > 13.5 | > 13.6
OCCNc1nc2c(N3CCCC3)nc(N3CCNCC3)nc2nc1NCc1ccccc1 | 30.7 | 29.1 | 30.8 | 33.3 | 32.2 | 32.7 | 30.5 | 24.7 | 30.1 | 25.5
OC1(c2ccc(Cl)cc2)c2ccccc2C2=NCc3ccccc3CN21 (stereo not drawn) | 15.2 | 5.13 | > 61.7 | > 47.6 | 25.6 | > 56.3 | 24.8 | 26 | > 58 | 11.6
CC(C)(C)OC(=O)NCCNC(=O)CN(CC(=O)O)C1CCCCC1N(CC(=O)O)CC(=O)O (stereo not drawn) | > 100 | > 100 | > 100 | > 100 | > 100 | > 100 | > 100 | > 100 | > 100 | > 100
CC(=O)C(C(=O)C(C)(C)C)C(=O)C(C)(C)C | > 100 | > 100 | > 100 | > 100 | > 100 | > 100 | > 100 | > 100 | > 100 | > 100
CCOC(=O)C1=CN(C(=O)c2ccccc2)CCC1Cc1ccccc1 (stereo not drawn) | 78.1 | 38.5 | 72.8 | 38.5 | > 100 | 37.5 | 88.4 | > 100 | 77.3 | > 100
CSc1nc(=O)c(C#N)c(-c2ccccc2)n1C1OC(COC(C)=O)C(OC(C)=O)C(OC(C)=O)C1OC(C)=O (stereo not drawn) | > 100 | > 100 | > 100 | > 100 | > 100 | > 100 | > 100 | > 100 | > 100 | > 100
C1=C[C@]2(CCC13OCCO3)COc1ccccc12 | > 100 | > 100 | > 100 | > 100 | > 100 | > 100 | > 100 | > 100 | > 100 | 75.5
CN(/N=C/c1ccc(Cl)c(Cl)c1)C1=NCCN1 | 38.3 | 75.2 | 90.8 | 59.8 | > 100 | 86.7 | > 100 | > 100 | > 100 | 67.6
Clc1ccc(-c2nn3c(C45CC6CC(CC(C6)C4)C5)nnc3s2)cc1 | > 100 | > 100 | > 100 | > 100 | > 100 | > 100 |  | > 100 | > 100 | > 100
COC1=C(OC)C(=O)C(Cc2c(Cl)nc3n2CCS3)=C(C)C1=O | 64.2 | 37.6 | 54.1 | 3.28 | 21 | 25.9 | 29.8 | 36 | 39.9 | 30.8
c1ccc(-c2nc3ccccc3n3nnnc23)cc1 | > 100 | > 100 | 97.3 | > 100 | > 100 | > 100 |  | > 100 | > 100 | > 100
Cc1nc(N)nc(N)c1N1CCN(Cc2ccccc2)CC1 | > 100 | > 100 | > 100 | > 100 | > 100 | > 100 | > 100 | > 100 | > 100 | > 100
Cc1nc2ccccc2cc1C[N+]12CN3CN(CN(C3)C1)C2 | 34.3 | 30.8 | > 100 | > 100 | 64.9 | > 100 | > 100 | 57.8 | > 100 | 45.8
Nc1ccc(-c2nc3cc(F)ccc3s2)cc1 | 45.8 | > 100 | > 100 | > 100 | > 100 | > 100 | > 100 | > 92.8 | > 100 | > 100
